This is an account of results in article PMC12040169 (PLOS Biology, 2025).

The series can be described thus: in vitro. The settings on record: human, hela cells, % viability.
For orientation: viability means a read-out of living cells in per cent, often relative to untreated cells. With `CCn1c(CN2CCCC2c2nc(N(C)C)ncc2-c2ccccc2)nc2ccccc21` (centres unmarked) [CBK286070], the viability at 28.5 h, 10 µM turned out to be 83.4%.

`Cc1cc(C)nc(N2CCC(CC(=O)NCc3ccccc3N3CCCC3)CC2)n1` [CBK286071]: the viability at 28.5 h, 10 µM turned out to be 95.5%.

For the compound `Cc1cc(C)nc(N2CCC(CC(=O)Nc3ccccc3CN3CCCC3)CC2)n1` [CBK286072], the viability at 28.5 h, 10 µM was determined as 104%.

With `Cc1cc(C)nc(N2CCC(c3cc(CCOc4ccc(C(F)(F)F)cc4)[nH]n3)C2)n1` (centres unmarked) [CBK286073], the viability at 28.5 h, 10 µM is 93.5%.

As to `Cc1ccc(C2CCCN2C(=O)Cn2cccc(C(=O)NCc3ccccc3)c2=O)cc1C` (centres unmarked) [CBK286074], the viability at 28.5 h, 10 µM turned out to be 89.5%.

Take `CCCn1cnc2cc(NC(=O)Cn3cccc(C(=O)NC4CCCCC4)c3=O)ccc21` [CBK286075]: the viability at 28.5 h, 10 µM is 93%.

On to `Cc1ccc2c(c1)cc(C(=O)N1CCCC(C)(C(=O)NC3CCCC3)C1)n2C` (centres unmarked) [CBK286076], for which the viability at 28.5 h, 10 µM was found to be 81.3%.

For `O=C(NCCCc1ccccc1Cl)c1ccc(=O)n(CC(=O)N2CCCCC2)c1` [CBK286078], the viability at 28.5 h, 10 µM is 85.9%.

For `CC(C)(CNC(=O)Cn1cc(C(=O)Nc2ccc(F)cc2)ccc1=O)c1cccc(F)c1` [CBK286079], the viability at 28.5 h, 10 µM came out at 99.6%.

With `O=C(Cn1cc(C(=O)NCc2ccc(F)cc2)ccc1=O)NC1(c2ccccc2)CCCC1` [CBK286081], the viability at 28.5 h, 10 µM worked out at 96.9%.

Turning to `CC(C)c1ccc(C(C)NC(=O)c2ccc(=O)n(CC(=O)N3CCCCC3)c2)cc1` (centres unmarked) [CBK286084], the viability at 28.5 h, 10 µM stood at 88.7%.

Regarding `O=C(c1ccccc1)N1CCC(c2cccc(Cc3ccccc3Cl)n2)CC1` [CBK286085], the viability at 28.5 h, 10 µM turned out to be 88.2%.

As to `CN(C)c1ncc(-c2ccc(F)cc2)c(C2CCCN2C(=O)c2nccc3ccccc23)n1` (centres unmarked) [CBK286086], the viability at 28.5 h, 10 µM is 84.3%.

Turning to `Cc1ccccc1Cc1cccc(C2CCN(CC(=O)Nc3nccs3)CC2)n1` [CBK286089], the viability at 28.5 h, 10 µM is 97.6%.

As to `COc1ccc(-c2cnc(N)nc2C2CCCN(C(=O)CCCc3ccccc3)C2)cc1` (centres unmarked) [CBK286091], the viability at 28.5 h, 10 µM stood at 94.4%.

As to `Nc1ncc(-c2ccc(F)cc2)c(C2CCCN(C(=O)CCc3ccc(F)cc3)C2)n1` (centres unmarked) [CBK286092], the viability at 28.5 h, 10 µM is 89%.

As for `c1ccc(Nc2nccc(C3CCCN(Cc4ccc5[nH]ccc5c4)C3)n2)nc1` (centres unmarked) [CBK286093], the viability at 28.5 h, 10 µM was found to be 85.3%.

Regarding `CCn1c(C)nc2cc(NC(=O)Cn3cc(C(=O)NC4CCCCC4)ccc3=O)ccc21` [CBK286095], the viability at 28.5 h, 10 µM amounted to 92.9%.

As for `CN(C)CCNC(=O)c1sc2ccccc2c1CC1CCCCCN1C(=O)C1CCC1` (centres unmarked) [CBK286096], the viability at 28.5 h, 10 µM worked out at 105%.

As to `CC(C)(CNC(=O)Cn1cc(C(=O)NC2CCCCC2)ccc1=O)c1ccccc1F` [CBK286099], the viability at 28.5 h, 10 µM amounted to 89%.

As to `COc1ccc(-c2cncc(C3CN(Cc4ccc(C)cc4OC)CCO3)n2)cc1` (centres unmarked) [CBK286100], the viability at 28.5 h, 10 µM is 91.8%.

Take `CN1CCN(C(=O)Cn2cc(C(=O)NC3CCCCC3)ccc2=O)C(c2ccccc2)C1` (centres unmarked) [CBK286102]: the viability at 28.5 h, 10 µM was 87.3%.

Consider `Cc1cc(Cc2cccc(Cl)c2)cc(C2CCCN(C(=O)CN3CCCC3=O)C2)n1` (centres unmarked) [CBK286103], for which the viability at 28.5 h, 10 µM turned out to be 94%.

For the compound `Cc1nc(CC(=O)N2[C@H]3CCCCCN(C)[C@@]3(C)C[C@H]2c2ccccc2)cs1` [CBK286104], the viability at 28.5 h, 10 µM came out at 109%.

For `Cc1cc(C)nc(N2CCC(CC(=O)N(C)CC(C)c3ccccc3)CC2)n1` (centres unmarked) [CBK286105], the viability at 28.5 h, 10 µM was 83.5%.

As to `COc1ccc(-c2cccc(C3CCCN(C(=O)c4ccc(F)cc4)C3)n2)cc1` (centres unmarked) [CBK286107], the viability at 28.5 h, 10 µM was found to be 99.3%.

Regarding `c1cc(C2CCCCN2Cc2ccc3[nH]ccc3c2)nc(Nc2nccs2)n1` (centres unmarked) [CBK286109], the viability at 28.5 h, 10 µM was 83.6%.

`CC(C)(CNC(=O)Cn1cc(C(=O)NC2CCCCC2)ccc1=O)c1cccc(F)c1` [CBK286110]: the viability at 28.5 h, 10 µM stood at 88.4%.

For `CC(=O)Nc1ccc(C(=O)N2CCC(c3cccc(Cc4ccccc4Cl)n3)CC2)cc1` [CBK286111], the viability at 28.5 h, 10 µM was 96.2%.
